{"source": "patent US20220339135A1", "about": "“COMPOSITIONS AND METHODS FOR MODULATING AN INFLAMMATORY RESPONSE” (Enzychem Lifesciences Corporation, priority 2019, published 2022)", "key": {"[1]": {"system": "p47phox in Raw264.7 cells", "assay": "LPS-induced p47phox recruitment", "type": "cell-based", "details": "LPS/PLAG treatment", "procedure": "Raw264.7 cells were divided into two groups: 1) LPS treated group and 2) LPS/PLAG treated group. For the LPS treated group, cells were treated with 100 μg/ml of DMSO (as solvent control) for 1 hour and treated with LPS (100 ng/ml) for 15, 30, 60, and 120 minutes. For LPS/PLAG treated group, cells were treated with PLAG (100 μg/ml) for 1 hour and treated with LPS (100 ng/ml) for 15, 30, 60, and 120 minutes. Cells were then fixed and stained using rat anti-TLR4/MD2 antibody with Alexa488-conjugated anti-rat IgG secondary antibody. These were analyzed by confocal microscopy. Raw264.7 cells stimulated under the same conditions were fixed, permeabilized, and stained with CM-H2DCFDA, the LYSO-ID® Lysosomal Detection Kit and rabbit anti-p47phox. Confocal microscopy was performed; all data shown represent one experiment performed in triplicate."}, "[2]": {"assay": "[14C] PLAG radioactivity in blood and lymph fluid", "type": "in vivo, rats", "details": "single oral [14C] PLAG", "procedure": "Quantification of PLAG in blood and lymph fluid was performed in Mitsubishi Chemical Medicine Corporation (Japan) by radioactivity analysis. [^14C] PLAG was synthesized by the LSI Medience Corporation (Kumamoto, Japan). The specific activities were 348.9 kBq/mg. The purity of the compound was 99.7%. The pharmacokinetics of [^14C] PLAG were determined in Crl: CD (SD) rats (Charles River Laboratories Japan, Inc.). Rats received [^14C] PLAG at 100 mg/5 mL/kg (dosing radioactivity: 5 MBq/kg) via the oral route. To determine radioactivity concentration in lymph fluid, the abdominal large thoracic duct-cannulated animals were fitted with collars while under isoflurane anesthesia and were subjected to the administration at least 30 minutes after collar fitting. […] Each of the collected samples was measured for radioactivity. Blood was collected from the subclavian vein and used to determine the radioactivity. […] Radioactivity was measured by LSC (Tri-Carb 2300TR. Perkin Elmer, Inc) with the tSIE (transformed spectral index of external standard) method for the quenching correction.\nQuantification of PLAG in blood and lymph fluid was performed in Mitsubishi Chemical Medicine Corporation (Japan) by radioactivity analysis. […] PLAG were determined in Crl: CD (SD) rats (Charles River Laboratories Japan, Inc.). […] PLAG at 100 mg/5 mL/kg (dosing radioactivity: 5 MBq/kg) via the oral route. […]"}, "[3]": {"assay": "Whole-body autoradiography after single oral [14C] PLAG", "type": "in vivo, rats", "details": "200 mg/kg oral", "procedure": "Tissue distribution of the PLAG after single oral administration of [^14C] PLAG was conducted in Biotoxtech (Korea) using whole-body autoradiography. Crl:CD (SD) strain albino rats received the single oral administration of [^14C] PLAG at a dose of 200 mg/kg and the animals were sacrificed by CO2 asphyxiation at defined times, and whole body autoradiograms were prepared to investigate the tissue distribution of radioactivity and its time course. Sampling time points are 15 minutes, 1 hour, 8 hours, and 24 hours after administration. The carcass was sliced into 40 micro meter-thick coronal plane sections that were collected on adhesive tape (NA-70, Nakagawa). The freeze-dried sections covered with a protective membrane were placed in contact with imaging plate (BAS-SR2025, Fuji Photo Film) and the plates were exposed in lead-sealed boxes at room temperature for 24 hours. After exposure, the radioactivity recorded on the imaging plate was analyzed using a bio-imaging analyzer system."}, "[4]": {"assay": "Micelle particle size by DLS and TEM", "type": "physicochemical", "details": "micelles", "procedure": "The formation of micelles composed of PLAG or POPC was prepared in RPMI1640 medium by vigorous stirring at a final concentration of 10 mg/ml. The particle size of PLAG and POPC micelles was measured by dynamic light scattering (Zetasizer 3000HS, Malvern Instruments Ltd., UK). The morphological examination of the micelles was performed by transmission electron microscopy (TEM) by dropping the samples into the carbon films on the copper grid for viewing with 2% (weight per volume) phosphotungstic acid staining."}}}
{"smiles": "CCCCC/C=C\\C/C=C\\CCCCCCCC(=O)OC(COC(C)=O)COC(=O)CCCCCCCCCCCCCCC", "note": "(racemic) [PLAG, 1-palmitoyl-2-linoleoyl-3-acetylglycerol]", "values": [{"measurement": "p47phox recruitment initiated", "setting": "[1]", "result": 15, "unit": "min"}, {"measurement": "return to homeostatic levels of p47phox", "setting": "[1]", "result": 60, "unit": "min"}, {"measurement": "PLAG in lymphatic vessel versus blood vessel", "setting": "[2]", "result": "More PLAG was detected in the lymphatic vessel than blood vessel"}, {"measurement": "time of highest concentration", "setting": "[2]; blood and lymph fluid", "result": 8, "unit": "h"}, {"measurement": "radioactivity in stomach and intestinal tract incl. luminal contents", "setting": "[3]; 15 minutes to 1 hour", "result": "high levels"}, {"measurement": "radioactivity in the liver and brown fat tissues", "setting": "[3]; 8 hours", "result": "Moderate levels"}, {"measurement": "radioactivity in the luminal side of the stomach", "setting": "[3]; 8 hours", "result": "high levels"}, {"measurement": "radioactivity in the liver", "setting": "[3]; 24 hours", "result": "low levels"}, {"measurement": "radioactivity in other tissues", "setting": "[3]; any sampling time point", "result": "not different from background level"}, {"measurement": "radioactivity in the liver", "setting": "[3]; up to 1 hour", "result": "Low levels"}, {"measurement": "average diameter (DLS)", "setting": "[4]", "result": 107.6, "unit": "nm"}, {"measurement": "particle shape (TEM)", "setting": "[4]", "result": "spherical shape"}]}
